{
  "source": "patent US5760001A",
  "about": "“Cytokine restraining agents and methods of use in pathologies and conditions associated with altered cytokine levels” (Trega Biosciences, Inc., priority 1995, dated 1998)",
  "assay_type_in_all_cases": "in vivo",
  "key": {"[1]": {"system": "adult female Balb/c mice", "assay": "Carageenan-induced paw swelling", "conditions": "1 μg/mouse; measured at the 2 hr time point", "protocol": "Carageenan-induced paw swelling was induced using a modification of the methods of Hiltz and Lipton, Peptides 11:979-982 (1990); Vinegar et al., Fed. Proc. 46:118-1.26 (1987); and Vinegar et al., J. Pharmacol. Expt. Therap. 166:96-103 (1969), each of which is incorporated herein by reference. Briefly, adult female Balb/c mice were anesthetized by IP injection of 7 mg/kg ketoamine and 0.6 mg/kg rompun. Foot pad thickness was measured using a spring loaded micrometer (Swiss Precision Instruments). Foot pad thickness was expressed in units of 1/100 inch. After baseline measurements were obtained, mice were injected into a hind foot pad with either 0.2 ml physiologic saline (control) or varying doses of EX-2 or EX-3 in 0.2 ml saline (treated). The first injection was followed immediately by injection of 0.02 ml of 0.15% κ-carageenan (Sigma Chemical Co.; St. Louis, Mo.).\nHind foot pad thickness was measured hourly for six hr, the change in thickness was determined and the percent reduction in swelling due to treatment with EX-2 was calculated."}, "[2]": {"system": "Male Harlan Sprague-Dawley rats", "assay": "Adult respiratory distress syndrome: LPS-induced PMN count in broncho-alveolar lavage fluid", "conditions": "100 μg/kg IP at 0, 2 and 4 hr; intratracheal LPS 5 mg/kg; lavage at 6 hr", "protocol": "These experiments were performed using a modification of the methods described by Ulich et al., Am. J. Pathol. 141:61-68 (1992) and by Wheelden et al., Lab. Animals 26:29-37 (1992), each of which is incorporated herein by reference. Male Harlan Sprague-Dawley rats were anesthetized using a mixture of 70 mg/kg ketamine and 6 mg/kg rompun injected IP. A 2-3 cm incision was made in the neck of each anesthetized rat and its trachea was exposed by blunt dissection of the surrounding soft tissue. The rats were suspended on a near vertical slab and intratracheal injections were performed by inserting into the exposed trachea, at a point 1 cm posterior to the larynx, a 25G×1/2 inch needle attached to a 1 cc syringe.\nEach rat received 0.5 ml/kg of saline or 0.5 ml/kg of 10 mg/ml (5 mg/kg) LPS endotoxin via slow intratracheal administration. Immediately following administration of the LPS endotoxin, rats were injected IP with 1 ml/kg of either saline (control) or saline containing various concentrations of EX-2 (treated). The rats were maintained in the elevated position for 1-2 min to facilitate distribution of the LPS and saline into the lung. The incisions were closed and the rats were allowed to recover. […]\nThe total polymorphonuclear leukocytes (PMN; neutrophils) in the broncho-alveolar lavage fluid were counted in the EX-2-treated rats and compared with the number in the control rats."}, "[3]": {"system": "Sprague-Dawley rats", "assay": "Renal ischemia-reperfusion injury", "design": "RVR (renal vascular resistance): unit not given here", "conditions": "I/R + EX-2 (50 or 500 μg/kg iv before 1 hr clamping), after 60 min reperfusion", "protocol": "Sprague-Dawley rats (250-300 g) were anesthetized with Inactin® (120 mg/kg). After deep anesthesia was assured, the rats were cannulated in the trachea with polyethylene (PE) tubing (PE 240), jugular vein, femoral artery, bladder (PE 50 for previous 3 cannulations), and left ureter (stretched PE 50). Once cannulation was completed, a 2 cm flank incision above the left kidney was performed and the renal pelvis and vascular bundle were exposed. The tissue surrounding the left renal artery was gently dissected away from the artery. The exposed renal artery was clamped for 1 hr using a small vascular cross-over clamp.\nJust prior to clamping, EX-2 (50 or 500 μg/kg), ketorolac (KETO, 1 mg/kg), or vehicle was administered intravenously (iv) After 1 hr of clamping (ischemia), the clamp was gently removed with care taken to avoid damaging either the renal artery or nerves. An infusion of ^3 H-Inulin (NEN/Dupont; Wilmington, Del.), (0.6 μCi/ml in phosphate buffered saline (PBS)) (2 ml/hr) was initiated at a constant rate of […]. After 60 min of reperfusion, glomerular filtration rate (GFR), renal plasma flow (RPF) and renal vascular resistance (RVR) were assessed in two 30 min collection periods. The kidney was then removed for analysis. Sham operated and clamped rats served as controls for the above group. Contralateral renal function was utilized to determine the stability of the rat's renal function during the measured period."}, "[4]": {"system": "male Sprague-Dawley rats", "assay": "Glomerulonephritis (nephrotoxic serum), albuminuria", "conditions": "EX-2 100 μg/kg per injection, 3 times per day; nephrotoxic serum iv", "protocol": "Male Sprague-Dawley rats (weight 194-248 g) were immunized by subcutaneous injection of 1 mg normal rabbit IgG (Sigma Chemical Co.) in Freund's complete adjuvant (Sigma Chemical Co.). EX-2 was administered 3 times per day (100 μg/kg per injection) throughout the duration of the experiment. Seven days later, the rats were injected with 1.5 ml of nephrotoxic serum iv via dorsal penile vein. Urine, plasma, and serum were collected before injection of nephrotoxic serum at 4, 6, 24, 48, and 96 hr thereafter. […] Albuminuria was quantified by immunoelectrophoresis."}},
  "data": [
    {"substance": "Ac-Nle-Gln-His-(D)Phe-Arg-(D)Trp-Gly-NH2 [EX-2]", "values": [
      {"measurement": "Reduction in Carageenan-induced Paw Swelling", "setting": "[1]", "value": 45, "unit": "%"},
      {"measurement": "Reduction in LPS-induced PMN Count", "setting": "[2]", "value": 58, "unit": "%"},
      {"measurement": "GFR (glomerular filtration rate)", "setting": "[3]; I/R + PBS 0.2 ± 0.1, Sham 1.0 ± 0.1", "value": "0.5 ± 0.1"},
      {"measurement": "RPF (renal plasma flow)", "setting": "[3]; I/R + PBS 0.8 ± 0.2, Sham 4.2 ± 0.4", "value": "2.3 ± 0.3"},
      {"measurement": "RVR (renal vascular resistance)", "setting": "[3]; I/R + PBS 6.6 ± 2.1, Sham 1.0 ± 0.1", "value": "1.8 ± 0.2"},
      {"measurement": "Glomerulonephritis: Albumin (mg/day), % Reduction of induced increase", "setting": "[4]", "value": 62, "unit": "%"}
    ]}
  ]
}
